According to ChEMBL document CHEMBL2321647 (ACS Med Chem Lett, 2013):

What was measured:
Histone deacetylase 2 = Histone deacetylase 2 (Homo sapiens, UniProt Q92769); assay: (§1) Inhibition of C-terminal His-tagged full length human recombinant HDAC2 expressed in baculovirus expression system using fluorogenic acetylated peptide as substrate preincubated with enzyme for 10 mins prior to substrate addition measured after 60 mins by fluorescence analysis
Histone deacetylase 9 = Histone deacetylase 9 (Homo sapiens, UniProt Q9UKV0); assay: Inhibition of C-terminal His-tagged human recombinant HDAC9 (amino acids 604- 1066) expressed in baculovirus expression system using fluorogenic acetylated peptide as substrate preincubated with enzyme for 10 mins prior to substrate addition measured after 60 mins by fluorescence analysis
Histone deacetylase 3 = Histone deacetylase 3 (Homo sapiens, UniProt O15379); assay: Inhibition of C-terminal His-tagged full length human recombinant HDAC3 co-expressed with NcoR2 in baculovirus expression system using fluorogenic acetylated peptide as substrate preincubated with enzyme for 10 mins prior to substrate addition measured after 60 mins by fluorescence analysis
Histone deacetylase 1 = Histone deacetylase 1 (Homo sapiens, UniProt Q13547); assay: as §1, with “His-tagged and C-terminal FLAG-tagged” for “His-tagged”, “HDAC1” for “HDAC2”
Chain of Histone deacetylase 1 (Q13547 whole entry): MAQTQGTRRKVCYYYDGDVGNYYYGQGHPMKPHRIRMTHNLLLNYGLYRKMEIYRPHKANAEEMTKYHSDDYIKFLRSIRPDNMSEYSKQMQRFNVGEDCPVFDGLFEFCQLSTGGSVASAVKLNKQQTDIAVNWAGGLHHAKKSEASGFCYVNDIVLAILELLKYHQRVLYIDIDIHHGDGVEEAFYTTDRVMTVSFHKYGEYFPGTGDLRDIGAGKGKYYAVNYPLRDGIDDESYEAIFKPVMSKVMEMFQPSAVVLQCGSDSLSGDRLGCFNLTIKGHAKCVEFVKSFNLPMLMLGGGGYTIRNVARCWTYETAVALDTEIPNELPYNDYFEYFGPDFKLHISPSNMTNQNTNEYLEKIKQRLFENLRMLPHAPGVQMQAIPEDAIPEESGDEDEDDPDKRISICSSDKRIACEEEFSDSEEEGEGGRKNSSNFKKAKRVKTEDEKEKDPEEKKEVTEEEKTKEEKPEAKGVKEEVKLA

Chain of Histone deacetylase 2 (Q92769 whole entry, the tested form may be a part): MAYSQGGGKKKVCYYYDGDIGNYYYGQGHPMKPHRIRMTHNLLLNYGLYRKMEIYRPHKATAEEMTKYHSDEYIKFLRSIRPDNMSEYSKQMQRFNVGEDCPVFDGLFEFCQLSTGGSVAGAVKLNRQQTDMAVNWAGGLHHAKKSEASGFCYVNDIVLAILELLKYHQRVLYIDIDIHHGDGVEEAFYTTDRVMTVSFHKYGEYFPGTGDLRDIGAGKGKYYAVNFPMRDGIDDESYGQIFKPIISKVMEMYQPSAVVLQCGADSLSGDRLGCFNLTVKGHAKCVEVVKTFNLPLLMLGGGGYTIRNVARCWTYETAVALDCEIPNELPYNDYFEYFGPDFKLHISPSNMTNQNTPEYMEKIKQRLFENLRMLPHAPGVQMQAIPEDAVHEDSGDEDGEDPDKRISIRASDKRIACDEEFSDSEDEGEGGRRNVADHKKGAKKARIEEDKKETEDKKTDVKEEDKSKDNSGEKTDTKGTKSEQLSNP
Chain of Histone deacetylase 3 (O15379 whole entry): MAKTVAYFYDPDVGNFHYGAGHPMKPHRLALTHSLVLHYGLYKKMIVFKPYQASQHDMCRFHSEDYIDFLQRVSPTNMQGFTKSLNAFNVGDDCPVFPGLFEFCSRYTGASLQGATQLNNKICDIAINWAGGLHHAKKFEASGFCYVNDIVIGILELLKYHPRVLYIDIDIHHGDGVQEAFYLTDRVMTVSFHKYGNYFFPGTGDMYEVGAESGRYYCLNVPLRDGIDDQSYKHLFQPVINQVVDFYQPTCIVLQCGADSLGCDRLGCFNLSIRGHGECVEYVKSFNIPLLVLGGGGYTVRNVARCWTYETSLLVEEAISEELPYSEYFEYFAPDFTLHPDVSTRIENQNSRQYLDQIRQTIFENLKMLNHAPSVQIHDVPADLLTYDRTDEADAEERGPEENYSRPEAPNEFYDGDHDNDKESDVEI
Chain of Histone deacetylase 9 (Q9UKV0 whole entry, the tested form may be a part): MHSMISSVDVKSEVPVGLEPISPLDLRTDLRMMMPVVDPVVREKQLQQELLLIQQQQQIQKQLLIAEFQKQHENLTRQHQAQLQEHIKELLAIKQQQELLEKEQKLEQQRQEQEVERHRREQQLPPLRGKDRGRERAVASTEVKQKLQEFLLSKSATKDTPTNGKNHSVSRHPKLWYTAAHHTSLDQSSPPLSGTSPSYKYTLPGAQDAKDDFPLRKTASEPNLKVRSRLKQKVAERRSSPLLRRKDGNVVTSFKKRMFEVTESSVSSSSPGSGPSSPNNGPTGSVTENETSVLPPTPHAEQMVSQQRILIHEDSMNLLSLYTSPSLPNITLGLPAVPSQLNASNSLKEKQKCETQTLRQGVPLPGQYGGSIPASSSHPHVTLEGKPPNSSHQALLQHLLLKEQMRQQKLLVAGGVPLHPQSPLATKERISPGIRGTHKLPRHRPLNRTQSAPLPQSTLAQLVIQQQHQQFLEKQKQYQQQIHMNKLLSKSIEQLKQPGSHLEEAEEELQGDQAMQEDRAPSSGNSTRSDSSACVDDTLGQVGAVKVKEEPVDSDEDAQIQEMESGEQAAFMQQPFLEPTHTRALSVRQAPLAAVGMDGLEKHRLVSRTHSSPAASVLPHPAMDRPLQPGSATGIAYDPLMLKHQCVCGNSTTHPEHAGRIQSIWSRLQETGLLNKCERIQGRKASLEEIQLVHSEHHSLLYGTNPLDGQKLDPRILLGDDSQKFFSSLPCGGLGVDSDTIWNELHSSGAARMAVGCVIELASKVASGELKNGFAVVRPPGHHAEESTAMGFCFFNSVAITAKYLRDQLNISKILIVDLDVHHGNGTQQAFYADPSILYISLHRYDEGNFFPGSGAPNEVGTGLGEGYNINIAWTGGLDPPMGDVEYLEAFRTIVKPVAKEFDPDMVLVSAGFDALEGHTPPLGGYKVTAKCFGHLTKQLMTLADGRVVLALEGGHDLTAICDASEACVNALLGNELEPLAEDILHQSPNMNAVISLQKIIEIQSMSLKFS

| Structure (SMILES) | IC50 (Histone deacetylase 2) [µM] | IC50 (Histone deacetylase 9) [µM] | IC50 (Histone deacetylase 3) [nM] | IC50 (Histone deacetylase 1) [nM] |
| --- | --- | --- | --- | --- |
| CCCCCCCC(=O)SCC/C=C/[C@@H]1CC(=O)NCc2nc(cs2)-c2nnnn2CC(=O)N[C@@H](C(C)C)C(=O)O1 | 25.1 | 18.4 | 10400 |  |
| CC(C)[C@@H]1NC(=O)Cn2nnnc2-c2csc(n2)CNC(=O)C[C@@H](/C=C/CCS)OC1=O | 3.27 | 16.2 | 649 | 1670 |
| CCCCCCCC(=O)SCC/C=C/[C@@H]1CC(=O)NCc2nc(cs2)C2=N[C@@](C)(CS2)C(=O)N[C@@H](C(C)C)C(=O)O1 [LARGAZOLE] | 1.72 | 8.33 |  | 146 |
| CC(C)[C@@H]1NC(=O)Cn2cc(nn2)-c2csc(n2)CNC(=O)C[C@@H](/C=C/CCS)OC1=O | 3.88 | 32 | 885 | 2350 |
| CCCCCCCC(=O)SCC/C=C/[C@@H]1CC(=O)NCc2nc(cs2)-c2cn(nn2)CC(=O)N[C@@H](C(C)C)C(=O)O1 | 32.1 | 63.2 | 14000 | 17600 |
| CC(C)[C@@H]1NC(=O)Cn2nnc(n2)-c2csc(n2)CNC(=O)C[C@@H](/C=C/CCS)OC1=O | 0.224 | 34.6 | 31 | 100 |
| CCCCCCCC(=O)SCC/C=C/[C@@H]1CC(=O)NCc2nc(cs2)-c2nnn(n2)CC(=O)N[C@@H](C(C)C)C(=O)O1 | 30.8 | > 100 | 3990 | 7420 |
